The nature of series [1]: Cyclic voltammetry of isoindigos in DMF (half-wave redox potentials under N2 or CO2). It counts as physicochemical. The conditions noted are these: 2.5 mM in DMF; for E1/2 in N2 (first): first half-wave potential vs. Fc^+/Fc; for E1/2 in N2 (first) / E1/2 in N2 (second): 0.1 M NBu4PF6, N2, 298 K; for E1/2 in N2 (second): second half-wave potential vs. Fc^+/Fc; for E1/2 in CO2 (first or single): vs. Fc^+/Fc, 0.1 M NBu4PF6, CO2, 298 K. On the procedure:
(§1) Electrochemical measurements were conducted using a BioLogic VSP potentiostat (BioLogic Science Instruments). For the cyclic voltammetry measurements, glassy carbon (Ø=3 mm) was used as the working electrode, platinum wire was used as the counter electrode, silver wire was used as the pseudo-reference electrode and ferrocene was used as the internal reference. In a standard cyclic voltammetry measurement, the molecule of interest (2.5 mM) was dissolved in anhydrous DMF with 100 mM NBu4PF6 as the supporting salt. Typical cyclic voltammograms were collected at a scan rate of […]. To study the effects of ionic species on the redox behaviour of the sorbent molecules, 100 mM LiClO4, NaClO4, KClO4, NBu4ClO4, sodium triflate (NaOTf), or sodium bis(trifluoromethanesulfonyl)imide (NaTFSI) was used as the supporting electrolyte salt.

A short description of series [2]: CO2 binding constant (KCO2) calculated from the shift of the second reduction peak in CV. The conditions noted are these: for K[CO2] / logK[CO2]: DMF, 298 K; for ΔEpeak(2): difference between the second reduction peak potentials (IId·−/IId2−) in CO2 and N2. On the procedure:
as §1
The CO2 binding constant (KCO2) was calculated by Eq 1: […]

Series [3] in a line: Solubility in DMF. It is filed as physicochemical.
For series [4], the system named is mammalian cells. In words: Cytotoxicity test and cell morphology, different mammalian cells. It counts as cell-based. Details: dose or concentration left out as unconfirmed. On the procedure: (§2) NIH3T3/GFP fibroblast cell line was kindly provided by Dr. Yun Chen at Johns Hopkins University and cultured in Dulbecco's Modified Eagle's Medium (DMEM; Gibco) supplemented with 10% fetal bovine serum (FBS; Hyclone) and 1% penicillin/streptomycin (Pen/Strep; Gibco). U2OS.EGFP cells were kindly provided by Dr. J Keith Joung at Massachusetts General Hospital and cultured in DMEM supplemented with 10% FBS, 2 mM GlutaMAX (Gibco), and 1% Pen/Strep. MCF10A epithelial cell line was kindly provided by Dr. Konstantinos Konstantopoulos at Johns Hopkins University and cultured in DMEM/F-12 (1:1) supplemented with 5% New Zealand horse serum (Gibco), 20 ng mL^−1 EGF (PeproTech), […] hydrocortisone (Sigma Aldrich), 100 ng mL^−1 cholera toxin (Sigma Aldrich), […] insulin (Gibco), and 1% Pen/Strep. All cells were cultured in a humidified incubator at 5% CO2 and 37° C.
(§3) Cell cytotoxicity was examined by alamarBlue HS Cell Viability Reagent (Invitrogen) according to manufacturer's protocol. Rampersad, 2012; Kumar et al., 2018. […] Absorbance was measured at 570 nm by a SpectraMax microplate reader, with 600 nm as a reference wavelength. The cell viability was calculated by relative absorbance to control groups. […] Cell morphology was monitored throughout the assay and images were acquired with an EVOS cell imaging system (Thermo Fisher).

The nature of series [5]: UV-vis absorption, optical band gap. It counts as physicochemical. The conditions noted are these: UV-vis absorption (Kubelka-Munk spectra). On the procedure: UV-vis absorption spectra were recorded on a Thermo Scientific Genesys 10S UV-vis spectrophotometer.
Series [6] in a line: Flow-based EMCC prototype, cyclic CO2 capture/release. The conditions noted are these: more than 40 cycles and approximately 200 hours of operation. On the procedure:
In a typical experiment, the sorbent tank (20 mL scintillation vial with septum cap) was continuously bubbled with CO2 feed gas (balanced by N2) with the flow rate controlled by a mass flow controller (Alicat). For testing under simulated flue gas conditions, a gas mixture of 10% CO2+3% O2 balanced by N2 was used. An infrared-based CO2 sensor (SprintIR-W 100%) was connected at the gas exit to monitor the CO2 concentration continuously. The tank headspace was filled with plastic beads (McMaster-Carr) to limit the mixing time in the headspace. The Fc tank was kept air free. A two-channel peristaltic pump (Masterflex) circulated the sorbent and the Fc electrolyte to a commercial flow cell (Scribner) at a flow rate of 10 mL min^−1. The flow cell utilised graphite plates with 5 cm^2 interdigitated flow fields pressed against two pieces of carbon paper electrodes (Sigracet 28 AA) at each side of the graphite electrodes to distribute the liquid flow. A Nafion™ 115 membrane was sandwiched by two pieces of polypropylene and placed between the carbon paper electrodes. The cell was kept sealed by Kalrez fluoropolymer elastomer gaskets (0.02 inches thick). CO2 capture was conducted in a constant current mode while the release was carried out following a constant current/constant voltage protocol (that is, oxidizing the adduct at a constant current until a specific cut-off voltage followed by a constant voltage hold (the cut-off current for the constant voltage hold was 5% of the value used in the constant current oxidation). The cycling protocols of each experiment are provided in the corresponding figure captions.
For experiments using 6MCIId sorbent, we added 10 mM 6MCIId and 4 mM ferrocenium tetrafluoroboronate (FcBF4) into the CE tank to mitigate sorbent crossover and facilitate the reduction of the oxidised ferrocenium in the counter electrolyte, respectively. For less soluble 55DBIId and 66DBIId, the sorbent was dispersed in DMAc to form a slurry catholyte.

Series [7] has as its system NIH3T3/GFP mouse fibroblasts. The series is described as follows: alamarBlue cytotoxicity assay. Particulars: concentrations up to 100 µg mL^−1, 48 h. It is filed as cell-based. On the procedure:
as §2, §3
(In general: Alamar Blue is a resazurin reagent that responds to reducing activity.)

The subject of series [8] is U2OS.EGFP human osteosarcoma cells. The series is described as follows: alamarBlue cytotoxicity assay. It counts as cell-based. The conditions noted are these: concentrations up to 100 µg mL^−1, 48 h. On the procedure:
as §2, §3

The subject of series [9] is MCF10A human breast epithelial cells. The series is described as follows: alamarBlue cytotoxicity assay. It is filed as cell-based. Details: unit not given here. Particulars: 48 h cell culture. On the procedure:
as §2, §3

In brackets after ≈: the same amount, converted by molar mass.

As for `COC(=O)C(CO)NC(=O)c1ccc2c(c1)NC(=O)/C2=C1/C(=O)Nc2ccccc21` (stereo not shown) [6AIIdSer, Methyl isoindigo-6-carbonylserinate], in series [1], the “E1/2 in N2 (first)” value is listed as −1.18, V; the “E1/2 in N2 (second)” value was −1.60 V; the “E1/2 in CO2 (first or single)” value is reported as −1.08 V. Also, in series [2], the “K[CO2]” value was 2.57e+08 M⁻¹, the “logK[CO2]” value is given as 8.41 and the “ΔEpeak(2)” value is listed as 0.46 V. Further, the “Solubility in DMF” value in series [3] amounted to 830 mM (≈ 338 mg/mL). In addition, the “Biocompatibility compared with unmodified counterpart” value in series [4] (0.78 to 100, 48 h) is reported as “much better biocompatibility”. Further, the “Cell condition in optical microscopic images, compared with IId” value in series [4] (50, 48 h culture) was “cells remained much healthier”. Further, the Optical band gap in series [5] came to 2.04 eV.

`COC(=O)C(CO)NC(=O)c1ccc2c(c1)NC(=O)/C2=C1/C(=O)Nc2cc(Br)ccc21` (stereo not shown) [6B6AIIdSer, Methyl 6-bromoisoindigo-6′-carbonylserinate]: in series [1], the “E1/2 in N2 (first)” value is recorded as −1.11, V; the “E1/2 in N2 (second)” value is −1.55 V; the “E1/2 in CO2 (first or single)” value was −1.11 V. Moreover, in series [2], the “K[CO2]” value was 5.41e+08 M⁻¹, the “logK[CO2]” value is on record as 8.73 and the “ΔEpeak(2)” value is listed as 0.475 V. The Cycling stability result in [6] is “negligible voltage decay”. In series [3], the “Solubility in DMF” value came to 568 mM (≈ 276 mg/mL). Besides, the Optical band gap in series [5] is 2.03 eV.

Turning to “Methyl isoindigo-6-carbonylserinate [6AIIdSer]”, the Toxicity result in series [7] and in series [8] was “does not display clear toxicity” in each case. The “LC50 (lethal concentration that causes 50% cell death)” value in series [9] was determined as 89.4.

Source of the values: US20250128203A1, “MODIFIED REDOX-ACTIVE SORBENTS FOR ELECTROCHEMICAL CARBON DIOXIDE SEPARATION” (The Johns Hopkins University, priority 2023, published 2025).
